In patent US9057727B2, “Screening methods using G-protein coupled receptors and related compositions” (The General Hospital Corporation, priority 2007, dated 2015):
Where two headings read alike, the source gives them in different places. Square brackets hold non-standard residues; d marks the D form. Peptide text beside a SMILES is read from it. hArg = N=C(N)NCCCC[C@H](N)C(=O)O; Nle = CCCC[C@H](N)C(=O)O; Aib = CC(C)(N)C(=O)O

Key:
[1] = molecular target: T1, ROS 17/2.8 cells (endogenous rat PTHR) (Rattus norvegicus, UniProt P25961); experiment: Delayed cAMP response in ROS 17/2.8 cells; format: cell-based
T1 construct: the rat osteoblastic cell line ROS17/2.8, which endogenously expresses the rat PTHR; endogenous in cells; host or cells: ROS 17/2.8 rat osteosarcoma cells (membranes or intact cells)
T1 sequence (P25961 27-591): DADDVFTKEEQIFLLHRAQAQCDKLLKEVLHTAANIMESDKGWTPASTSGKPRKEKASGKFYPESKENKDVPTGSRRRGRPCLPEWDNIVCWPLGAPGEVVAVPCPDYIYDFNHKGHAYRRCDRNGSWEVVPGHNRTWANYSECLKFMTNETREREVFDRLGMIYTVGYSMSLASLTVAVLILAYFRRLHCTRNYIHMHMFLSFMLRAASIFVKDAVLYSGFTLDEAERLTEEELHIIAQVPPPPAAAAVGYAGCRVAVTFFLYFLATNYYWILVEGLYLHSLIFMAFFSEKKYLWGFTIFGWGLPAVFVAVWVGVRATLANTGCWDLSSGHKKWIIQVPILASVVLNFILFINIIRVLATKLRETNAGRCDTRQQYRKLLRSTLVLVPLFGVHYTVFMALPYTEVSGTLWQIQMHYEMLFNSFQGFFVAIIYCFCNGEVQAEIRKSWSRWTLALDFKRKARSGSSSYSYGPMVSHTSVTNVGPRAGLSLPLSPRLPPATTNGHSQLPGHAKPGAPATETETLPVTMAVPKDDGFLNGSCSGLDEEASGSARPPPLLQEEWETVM
Description: The analogs used were [E^19],Mc-hPTH(1-34)OH (SEQ ID NO:21) and [A^23,E^19],Mc-hPTH(1-34)OH (SEQ ID NO:28) (Mc=Ala^1,3,12,Gln^10,Arg^11,Trp^14, Arg^19).
The data in FIG. 21B are expressed as a percent of the maximum response observed for each ligand, determined by incubating the cells with ligand in the presence of IBMX for 10 minutes (no ligand wash-out). These values were 67±6; 68±3; and 71±1 pmole/well, respectively. The basal (vehicle) cAMP value was 3.7±0.4 pmole/well.
Following treatment of cells with a ligand, the intracellular cAMP levels were measured by radioimmuno assay, as described (Shimizu et al., J. Biol. Chem. 276:49003-49012 (2001)). The capacities of ligands to produce a delayed cAMP response in cells after a brief exposure to the ligand was assessed as follows. […]

[2] = Calcemic action in normal rats (blood ionized calcium); format: in vivo; conditions: for calcemic action (blood ionized calcium), in words: normal rats, i.v.
Description: Binding to the rat PTHR was also measured in vitro.
Concentration of peptides in stock solution were adjusted by dilution with 25 mmol/L phosphate-citrate buffer/100 mmol/L NaCl/0.05% Tween 80 (pH. 5.0) (PC-buffer). All peptides were allowed to stand on ice immediately before administration.
Female SD-IGS rat at 8 weeks of age (Charles River Japan, Inc.) were measured for their body weight. Blood was collected by tail vein into heparinized capillary tubes and measured for baseline levels of blood ionized calcium and pH using Ca^++/pH analyzer (Model 634/Bayer Medical Ltd.) to give the corrected level of ionized calcium at pH 7.4 for each sample. Rats received intravenous administration of each peptides at a dose of 1 ml/kg. Peptides were administered to groups of 6 rats each respectively. At 1, 2, 4, or 6 hours after administration, blood was collected by tail vein to monitor the time course of corrected blood ionized calcium levels. The time course of changes in corrected ionized calcium levels, compared to vehicle, and are expressed as means+/−standard error.

[3] = Serum and urinary calcium and phosphate in TPTX rats; format: in vivo
Description: Five-week-old male Crl:CD(SD) rats were obtained from Charles River Laboratories Japan, Inc. (Kanagawa, Japan) and acclimated for 1 week under standard laboratory conditions at 20-26° C. and 35-75% humidity. The rats received free access to tap water and standard rodent chow (CE-2) containing 1.1% calcium, 1.0% phosphate and 250 IU/100 g of vitamin D3 (Clea Japan, Inc., Shizuoka, Japan).
Thyroparathyroidectomy (TPTX) was performed on six-week-old rats. TPTX rats were selected for use based on serum ionized calcium (iCa) levels (<1.0 mM) in samples taken from tail vein bleeding at 24 hours or […] after the operation using the electrode method. The TPTX rats were divided into six groups of five animals based on iCa levels at 48 hours after the operation. TPTX-vehicle group intravenously received the vehicle alone (10 mM acetic acid solution) at a dose of 1 ml/kg body weight administered to the tail vein.
Blood was obtained from the tail vein for detecting iCa at 1, 2, 4, 6, and 24 hours after each injection. Ionized calcium levels were determined by the electrode method using an autoanalyzer (M-634, Chiba Corning Diagnostics Co. Ltd., Tokyo, Japan).
We also studied the effects of the M-PTH(1-14)/PTHrP(15-36) hybrid peptide (SP-PTH) on serum and urinary calcium and phosphate.

[4] = molecular target: T2, hPTH1R (R0 form of the human PTH receptor) (Homo sapiens, UniProt Q03431); experiment: R0 memb: hPTH1R*PTH( 1-34)+GTPgS
T2 construct: expressed in transfected cells; host or cells: COS-7, transient (Fugene-6)

[5] = molecular target: hPTH1R (RG form of the human PTH receptor); experiment: RG memb: hPTH1R+dnGS *M-PTH(1-15)
[6] = molecular target: T3, human PTHR, G protein-coupled conformation (RG) (Homo sapiens, UniProt Q03431); experiment: Competition binding to RG conformation of hPTHR (COS-7 membranes, GαsND, 125I-[Aib1,3,M]PTH(1-15) tracer); conditions: Table 5; read-out: IC50 RG, ^125I-PTH(1-15) + GsND
T3 construct: expressed in transfected cells; host or cells: COS-7, transient (Fugene-6); membranes
T3 sequence (Q03431 27-593): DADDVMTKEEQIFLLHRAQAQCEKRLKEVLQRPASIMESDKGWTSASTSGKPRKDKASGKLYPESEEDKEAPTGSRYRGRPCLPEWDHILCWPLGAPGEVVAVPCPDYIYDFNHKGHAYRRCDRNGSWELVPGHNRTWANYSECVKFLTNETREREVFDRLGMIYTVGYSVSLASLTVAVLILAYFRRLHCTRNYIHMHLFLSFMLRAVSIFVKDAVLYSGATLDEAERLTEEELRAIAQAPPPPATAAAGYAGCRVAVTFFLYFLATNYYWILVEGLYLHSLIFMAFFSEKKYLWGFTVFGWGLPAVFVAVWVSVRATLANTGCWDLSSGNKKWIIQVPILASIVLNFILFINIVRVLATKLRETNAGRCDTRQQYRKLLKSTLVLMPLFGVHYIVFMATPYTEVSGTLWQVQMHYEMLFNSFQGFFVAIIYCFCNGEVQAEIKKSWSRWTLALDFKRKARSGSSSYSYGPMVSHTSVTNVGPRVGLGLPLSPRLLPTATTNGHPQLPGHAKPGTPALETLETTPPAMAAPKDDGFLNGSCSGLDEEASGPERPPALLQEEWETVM

[7] = molecular target: T4, human PTHR, G protein-uncoupled conformation (R^0) (Homo sapiens, UniProt Q03431); experiment: Competition binding to R0 conformation of hPTHR (COS-7 membranes, GTPγS, 125I-PTH(1-34) tracer)
T4 construct: expressed in transfected cells; host or cells: COS-7, transient (Fugene-6)
T4 sequence (Q03431 27-593): T3 sequence (Q03431 27-593)
In short: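 Membranes from hPTHR-transfected COS-7 cells (20-100 μg/mL protein) incubated 90 min with radioligand (~150,000 cpm/ml) and unlabeled ligands, then filtered. Specific binding expressed as % of binding without competitor.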

[8] = system: PTHR-CFPIC3/YFPCT (PTHR-cam); experiment: FRET analysis of ligand binding/receptor activation in HEK-293 cells; format: cell-based, human
hPTHR = molecular target: T5, hPTHR (Homo sapiens, UniProt Q03431); experiment: Delayed cAMP response after ligand wash-out in HKRK-B64 cells; format: cell-based; set-up: expressed in transfected cells; conditions: HKRK-B64, at two hours (so in the source); read-out: cAMP response after wash-out, % of maximum response
T5 sequence (Q03431 27-593): T3 sequence (Q03431 27-593)

Row | IC50 [4] [nM] | IC50 [5] [nM] | IC50 [6] [nM] | R0:RG ([7]; Table 5, fold weaker affinity for R0 than RG) | Emax (hPTHR) [%] | fold reduction of binding affinity for R^0 by Trp^23→Ala substitution ([7]; versus [E^19,Mc]PTH(1-34)) [fold] | Compound | duration of cAMP signaling, in words [1] | calcemic action compared with control peptides, in words ([2]; normal and TPTX rats) | calcemic action (blood ionized calcium), in words [2] | duration of calcemic / sCa and sPi effect, in words [3] | duration of calcemic / sCa and sPi effect, in words ([3]; listed as SP-PTH) | serum calcium (sCa) and serum phosphorus (sPi), in words ([3]; single i.v. 1.25 nmol/kg) | urinary calcium 0-6 hours, in words ([3]; single i.v. 1.25 nmol/kg) | urinary phosphate 0-6 hours, in words ([3]; single i.v. 1.25 nmol/kg) | FRET signal after exchange to ligand-free buffer, in words [8]
1 | 2.7 | 0.67 |  |  |  |  | CC[C@H](C)[C@H](NC(=O)[C@H](CCC(=O)O)NC(=O)[C@H](C)NC(=O)[C@@H](NC(=O)[C@H](Cc1c[nH]cn1)NC(=O)[C@@H](NC(=O)[C@H](CCC(=O)O)NC(=O)[C@H](C)NC(=O)[C@@H](NC(=O)[C@H](CC(C)C)NC(=O)[C@H](Cc1c[nH]cn1)NC(=O)[C@H](Cc1c[nH]cn1)NC(=O)[C@H](CC(C)C)NC(=O)[C@H](Cc1ccccc1)NC(=O)[C@H](Cc1ccccc1)NC(=O)[C@H](CCCNC(=N)N)NC(=O)[C@H](CCCNC(=N)N)NC(=O)[C@H](CCCNC(=N)N)NC(=O)[C@H](CC(C)C)NC(=O)[C@H](CC(=O)O)NC(=O)[C@H](CCC(N)=O)NC(=O)[C@@H](NC(=O)[C@H](Cc1c[nH]c2ccccc12)NC(=O)[C@H](CCCCN)NC(=O)[C@H](C)NC(=O)[C@H](CCCNC(=N)N)NC(=O)[C@H](CCC(N)=O)NC(=O)[C@H](Cc1c[nH]cn1)NC(=O)[C@H](CCSC)NC(=O)[C@H](CC(C)C)NC(=O)[C@H](CCC(N)=O)NC(=O)[C@@H](NC(=O)[C@H](CCC(=O)O)NC(=O)[C@H](C)NC(=O)[C@@H](NC(=O)[C@H](C)N)C(C)C)[C@@H](C)CC)[C@@H](C)CC)[C@@H](C)CC)[C@@H](C)CC)[C@@H](C)O)C(=O)O [Mc-PTH(1-14)/PTHrP(15-36)] (H-AVAEIQLMHQRAKWIQDLRRRFFLHHLIAEIHTAEI-OH) | prolonged cAMP signaling | higher calcemic actions than did PTH(1-34) | Prolonged calcemic effects | prolonged calcemic effects | maintained for 24 hrs | increased sCa and decreased sPi to normal levels within 6 hrs | decreased urinary calcium | increased urinary phosphate level | 
2 |  |  | 0.74 ± 0.18 | 1,397 | 23 |  | CCCC[C@H](NC(=O)[C@H](CC(C)C)NC(=O)[C@H](CCC(N)=O)NC(=O)[C@@H](NC(=O)[C@H](CCC(=O)O)NC(=O)C(C)(C)NC(=O)[C@@H](NC(=O)C(C)(C)N)C(C)C)[C@@H](C)CC)C(=O)N[C@@H](Cc1c[nH]cn1)C(=O)N[C@@H](CCC(N)=O)C(=O)N[C@@H](CCCCNC(=N)N)C(=O)N[C@@H](C)C(=O)N[C@@H](CCCCN)C(=O)N[C@@H](Cc1c[nH]c2ccccc12)C(=O)N[C@@H](Cc1ccc(O)cc1)C(N)=O [[Aib^1,3,M]rPTH(1-15)NH2, [Aib^1,3,Nle^8,Gln^10,homoarginine^11,Ala^12,Trp^14,Tyr^15]rPTH(1-15)NH2, reference compound] (H-[Aib]V[Aib]EIQL[Nle]HQ[hArg]AKWY-NH2; N-terminus assumed) |  |  |  |  |  |  |  |  | began to decay immediately upon exchange of the buffer to a ligand-free one
3 |  |  |  |  |  | 10 | AVAEIQLMHQRAKWLNSMERVEALRKKLQDVHNF [[A^23,E^19],Mc-hPTH(1-34)OH] | reduced duration of cAMP signaling in cells |  | reduced the hypercalcemic effect |  |  |  |  |  | 
